Assay results taken from patent US20030109418A1, “Methods for identifying compounds for inhibition of neoplastic lesions, and pharmaceutical compositions containing such compounds” (priority 1999, published 2003).
Where a name gives a salt, the structure may show the parent alone.

How the values were obtained:
[1] = Seven-day dose-range finding study in rats; format: in vivo, rat
[2] = test system: HT-29; test: Growth inhibition, neutral red assay, HT-29; format: cell-based, human; conditions: free base, five days
Protocol: (§1) Compound I's activity is not confined to activity against colon cancer cell lines or animal models of colon cancer. It has a broad range of anti-neoplastic effects in various neoplastic cell lines. Various types of human cancer cell lines were propagated under sterile conditions in RPMI 1640 medium with 10% fetal bovine serum, 2 mM L-glutamine and sodium bicarbonate. To determine growth inhibitory effects of Compound I, cells were seeded in 96-well plates at a density of 1000 cells per well. Twenty-four hours after plating, the cells were dosed with various concentrations of the free base of Compound I solubilized in DMSO (final concentration 0.1%). The effect of the drug on tumor cell growth was determined using the neutral red cytotoxicity assay following five days of continuous treatment. Neutral red is a dye that is selectively taken up by viable cells by an ATP-dependent transport mechanism.

[3] = test system: MDA-MB-231; test: Growth inhibition, neutral red assay, MDA-MB-231; format: cell-based, human; conditions: free base, five days
Protocol: as §1

[4] = test system: RPMI-8226; test: Growth inhibition, neutral red assay, RPMI-8226; format: cell-based; conditions: Homo sapiens, HCl salt
Protocol: as §1

[5] = test system: HT-29 human colon carcinoma cell line; test: Growth inhibition, SRB assay, HT-29; format: cell-based; parameters: Growth Inhibition: key to the marks not given beside the values
[6] = test system: HCT116, Colon; test: Growth inhibition, SRB assay, HCT116; format: cell-based; conditions: Homo sapiens, HCT-116
Source text: A compound's ability to inhibit tumor cell growth can be measured using the HT-29 human colon carcinoma cell line obtained from ATCC. HT-29 cells have previously been characterized as a relevant colon tumor cell culture model (Fogh, J., and Trempe, G. In: Human Tumor Cells in Vitro, J. Fogh (eds.), Plenum Press, New York, pp. 115-159, 1975). HT-29 cells are maintained in RPMI media supplemented with 5% fetal bovine calf serum (Gemini Bioproducts, Inc., Carlsbad, Calif.) and 2 mm glutamine, and 1% antibiotic-antimycotic in a humidified atmosphere of 95% air and 5% CO2 at 37° C. Briefly, HT-29 cells are plated at a density of 500 cells/well in 96 well microtiter plates and incubated for 24 hours at 37° C. prior to the addition of compound. […] After six days in culture, the cells are fixed by the addition of cold trichloroacetic acid to a final concentration of 10% and protein levels are measured using the sulforhodamine B (SRB) colorimetric protein stain assay as previously described by Skehan, P., Storeng, R., Scudiero, D., Monks, A., McMahon, J., Vistica, D., Warren, J. T., Bokesch, H., Kenney, S., and Boyd, M. R., “New Colorimetric Assay For Anticancer-Drug Screening,” J. Natl. Cancer Inst. […]
To show the effectiveness of this screening method on various forms of neoplasia, compounds were tested on numerous cell lines. […] The IC50 values were determined by the SRB assay. […]

[7] = test system: NRK, Kidney (non ras-transformed); test: Growth inhibition, SRB assay, NRK; format: cell-based
[8] = test system: premalignant lesions in mouse mammary gland organ culture; test: Mammary gland organ culture model; format: cell-based; for mammary gland organ culture: key: −: Not active; +: Slightly active; ++: Moderately active; +++: Strongly active; ++++: Highly active
[9] = test system: new polyps in patients with adenomatous polyposis coli; test: Clinical prevention trial in APC patients; format: in vivo, human
Source text: The first clinical trial involved patients with APC.
using exisulind. In that study, each patient had already had his/her colon removed, except for a small section of colon adjacent the rectum (where the small intestine was attached) to preserve rectal function. However, such a patient commonly forms polyps in the small remaining colonic section, which polyps require periodic removal (e.g., by electrocautery).
That trial where exisulind was selected was a prevention trial designed to evaluate the anti-neoplastic characteristics of the drug by comparing the cumulative number of new polyps formed over twelve months by the drug and placebo groups. Eligible patients were those who form between 9 and 44 polyps per year. Patients were fully ablated (had all polyps removed) at the start of the study, at the end of 6 months and at the end of 12 months. The study enrolled thirty-four eligible patients. […] Based on the median number of polyps produced in the first six months of the study, patients treated with exisulind developed approximately one-third the number of polyps as patients treated with placebo (median values 9 polyps/year and 26 polyps/year, respectively; p=0.013). […]

| SMILES | signs of toxicity, seven-day study ([1]; 50 mg/kg/day) | treatment-related effects, seven-day study ([1]; 500 mg/kg/day) | effects, seven-day study ([1]; 2000 mg/kg/day) | GI50 ([2]; Homo sapiens, HT-29, 120 h) [µM] | GI90 μM, HT-29 [2] [µM] | GI50 ([3]; Homo sapiens, MDA-MB-231, 120 h) [µM] | GI90 μM, MDA-MB-231 [3] [µM] | GI50 [4] [µM] | IC50 ([5]; Homo sapiens, HT-29, 144 h, six days, SRB assay, read-out: IC50, growth of HT-29 cells) [µM] | inhibition at 100 µM ([5]; Homo sapiens, HT-29, read-out: Growth-inhibitory activity, % Inhibition at 100 μM) [%] | Growth Inhibition ([5]; qualitative activity profile) | IC50 [6] [µM] | IC50 [7] [µM] | inhibition of the formation of premalignant lesions ([8]; mammary gland organ culture) | Mammary Gland Organ Culture ([8]; qualitative activity profile) | median number of polyps produced, entire 12 months ([9]; entire 12 months of the study) [polyps/year] | median number of polyps produced, first six months ([9]; first six months of the study) [polyps/year] |
| --- | --- | --- | --- | --- | --- | --- | --- | --- | --- | --- | --- | --- | --- | --- | --- | --- | --- |
| CC1=C(CC(=O)NCc2ccccc2)c2cc(F)ccc2/C1=C\c1ccncc1 [Compound I, (Z)-5-fluoro-2-methyl-(4-pyridylidene)-3-(N-benzyl)indenylacetamide hydrochloride] | no observable signs of toxicity | increase in absolute and relative liver weights in female rats | labored breathing and/or abnormal respiratory sounds, decreased weights gains and food consumption in male rats, and increased liver weights in female rats | 2.1 | 8.0 | 1.8 | 77.6 | 1.2 | – | – | – | – | – | – | – | – | – |
| CC1=C(CC(=O)O)c2cc(F)ccc2/C1=C\c1ccc(S(C)(=O)=O)cc1 [Exisulind, 5-fluoro-2-methyl-1-(p-methylsulfonylbenzylidene)-3-indenylacetic acid] | – | – | – | – | – | – | – | – | ~200 | < 50 | ++ | 90 | 180 | effectively inhibit the formation of premalignant lesions | +++ | 18 | 9 |
